Laboratory results from PMC11202169, “A Novel Fluorescence-Based Microplate Assay for High-Throughput Screening of hSULT1As Inhibitors” (Biosensors, 2024).

Tests used:
hSULT1As [1] = test system: hSULT1As; design: method as in PMID 12264750, PMID 35713964, PMID 6786543; details: ascorbic acid as competitive inhibitor of hSULT1As; ref [13],[14],[15]; cited from earlier work
hSULT1A2 = molecular target: T1, hSULT1A2 (Homo sapiens, UniProt P50226); experiment: Enzymatic kinetics of hSULT1A2-catalyzed HN-241 4-O-sulfation; assay type: biochemical
T1 construct: 6-histidine tag (N); TEV site (N); made in house; host or cells: Escherichia coli BL21 (DE3), pET29a(+)
Procedure: (§1) The enzymatic kinetic parameters of hSULT1As-catalyzed HN-241 4-O-sulfation were measured by incubating increasing concentrations of HN-241 with each of the hSULT1As for a certain period. The fitting equations included Equation (2), the Michaelis–Menten equation, and Equation (3) for enzyme kinetics with substrate inhibition. Related kinetic parameters were fitted by GraphPad Prism 8.0 (San Diego, CA, USA). (2) V=Vmax × [S]/Km+[S] (3) V=Vmax × [S]/Km+[S](1+[S]/Ki)
(§2) [S] refers to the concentration of HN-241, Vmax is the maximum rate of hSULT1As-catalyzed HN-241 4-O-sulfation, Km is the substrate concentration at the half Vmax, and Ki represents the dissociation constant for the binding of the substrate to the inhibitory site.

hSULT1A1 = molecular target: T2, hSULT1A1 (Homo sapiens, UniProt P50225); experiment: Enzymatic kinetics of hSULT1A1-catalyzed HN-241 4-O-sulfation; assay type: biochemical
T2 construct: 6-histidine tag (N); TEV site (N); made in house; host or cells: Escherichia coli BL21 (DE3), pET29a(+)
Procedure: as §1, §2

[2] = Fluorescence quantum yield; assay type: physicochemical; details: physiological conditions; standard quinine sulfate (Φ = 0.55)
Procedure: The fluorescence quantum yield is defined as the ratio of the number of photons emitted to the number of photons absorbed, which is a key parameter in fluorescence spectroscopy that describes the efficiency of the fluorescence process. The fluorescence quantum yields (Φ) of HN-241 and HN-241 sulfate were measured using quinine sulfate in 50 mM aqueous H2SO4 (Φ = 0.55) as the standard, and calculated according to the following Equation (1). (1) Yu=Ys × Fu × As/Fs × Au
“A” represents the absorbance at the excitation wavelength, “F” denotes the integral fluorescence intensity, and the subscripts “s” and “u” refer to the standard and sample, respectively.

hSULT1A3 = molecular target: T3, hSULT1A3 (Homo sapiens, UniProt P0DMM9); experiment: Enzymatic kinetics of hSULT1A3-catalyzed HN-241 4-O-sulfation; assay type: biochemical
T3 construct: 6-histidine tag (N); TEV site (N); made in house; host or cells: Escherichia coli BL21 (DE3), pET29a(+)
Procedure: as §1, §2

hSULT1As [3] = experiment: O-sulfation and spectroscopic changes with hSULT1As (statements for all isoforms together); assay type: biochemical, human; details: substrate 10 μM, all tested hSULT1A isozymes
Procedure: The incubation system consisted of Tris-HCl buffer (pH 7.4, 50 mM), MgCl2 (5 mM), DTT (200 μM), recombinant hSULT1As (29 pmol), and each fluorophore or 4-HN derivative (10 μM). After pre-incubation at 37 °C for 3 min, the reaction was initiated by adding an excess of PAPS (200 μM). Following 1 h incubation, the reaction was terminated with the addition of an equal volume of ice-cold acetonitrile. After centrifugation at 20,000× g for 20 min at 4 °C, the supernatant was collected for HPLC analysis. The mobile phase consisted of 10 mM aqueous ammonium acetate (A) and acetonitrile (B) at a flow rate of 0.4 mL/min. Gradient elution was performed under the following conditions: 0–2.0 min, 5% B; 2.0–10.0 min, 5–95% B; 10.0−12.0 min, 95% B; 12.0–12.5 min, 95–5% B; and 12.5–15.0 min, 5% B.
The spectroscopic changes in these fluorophores following O-sulfation were investigated. The incubation system was the same as that used in Section 2.3. The emission spectra of eight fluorophores in the presence and absence of three hSULT1A isoforms were determined using BioTek Synergy H1.

T1 sequence (P50226 whole entry): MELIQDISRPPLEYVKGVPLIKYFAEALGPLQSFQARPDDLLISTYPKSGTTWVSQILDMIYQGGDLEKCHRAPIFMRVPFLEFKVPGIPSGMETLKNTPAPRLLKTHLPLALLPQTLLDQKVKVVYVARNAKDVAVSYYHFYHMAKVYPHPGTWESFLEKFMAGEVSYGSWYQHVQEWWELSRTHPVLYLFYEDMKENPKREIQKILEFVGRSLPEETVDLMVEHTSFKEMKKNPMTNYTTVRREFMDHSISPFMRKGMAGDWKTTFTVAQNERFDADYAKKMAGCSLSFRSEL
T3 sequence (P0DMM9 whole entry): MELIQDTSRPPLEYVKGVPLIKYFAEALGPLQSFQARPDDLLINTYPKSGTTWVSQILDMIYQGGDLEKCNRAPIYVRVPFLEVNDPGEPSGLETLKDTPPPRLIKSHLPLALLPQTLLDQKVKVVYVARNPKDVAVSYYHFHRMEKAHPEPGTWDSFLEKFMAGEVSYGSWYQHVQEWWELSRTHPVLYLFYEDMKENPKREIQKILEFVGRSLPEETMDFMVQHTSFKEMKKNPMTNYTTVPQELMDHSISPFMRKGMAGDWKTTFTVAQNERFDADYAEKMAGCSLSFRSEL
T2 sequence (P50225 whole entry): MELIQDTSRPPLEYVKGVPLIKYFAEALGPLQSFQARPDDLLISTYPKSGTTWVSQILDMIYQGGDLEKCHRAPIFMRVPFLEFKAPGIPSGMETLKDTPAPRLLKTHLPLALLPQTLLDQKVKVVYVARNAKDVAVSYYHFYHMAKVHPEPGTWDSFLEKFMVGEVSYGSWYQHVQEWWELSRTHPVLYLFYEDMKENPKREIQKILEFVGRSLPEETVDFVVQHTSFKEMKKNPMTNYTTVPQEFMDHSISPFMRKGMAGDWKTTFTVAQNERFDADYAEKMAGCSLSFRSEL

Compound: O=C1O[C@H]([C@@H](O)CO)C(O)=C1O [ascorbic acid]
- Boost of the bioavailability of ethinylestradiol (hSULT1As [1]): approximately 50%

Compound: CCN1C(=O)c2cccc3c(O)ccc(c23)C1=O [HN-241, 4-hydroxy-N-ethyl-1,8-naphthalimide]
- Clint (hSULT1A2; hSULT1A2): 1440.94 μL/min/mg Protein
- Vmax (hSULT1A2; hSULT1A2, Michaelis–Menten kinetics): 6441.00 pmol/min/mg Protein
- Clint (hSULT1A1; HN-241 4-O-sulfation): 24,265.93 μL/min/mg Protein
- Ki (hSULT1A1; substrate inhibition constant of HN-241 (binding of substrate to the inhibitory site)): 1370 ± 400 nM
- Fluorescence quantum yield (Φ) [2]: 0.02
- Clint (hSULT1A3; hSULT1A3): 683.26 μL/min/mg Protein
- Vmax (hSULT1A3; hSULT1A3, Michaelis–Menten kinetics): 8814.00 pmol/min/mg Protein
- O-sulfation by hSULT1As (in words) (hSULT1As [3]): highest O-sulfation rate
